{"source": "patent US10301265B2", "about": "(priority 2008, dated 2019)", "key": {"[1]": {"target": "recombinant full-length BoNT/A light chain (rALC) (Clostridium botulinum, UniProt P0DPI0)", "sequence (P0DPI0 2-448 limits assumed)": "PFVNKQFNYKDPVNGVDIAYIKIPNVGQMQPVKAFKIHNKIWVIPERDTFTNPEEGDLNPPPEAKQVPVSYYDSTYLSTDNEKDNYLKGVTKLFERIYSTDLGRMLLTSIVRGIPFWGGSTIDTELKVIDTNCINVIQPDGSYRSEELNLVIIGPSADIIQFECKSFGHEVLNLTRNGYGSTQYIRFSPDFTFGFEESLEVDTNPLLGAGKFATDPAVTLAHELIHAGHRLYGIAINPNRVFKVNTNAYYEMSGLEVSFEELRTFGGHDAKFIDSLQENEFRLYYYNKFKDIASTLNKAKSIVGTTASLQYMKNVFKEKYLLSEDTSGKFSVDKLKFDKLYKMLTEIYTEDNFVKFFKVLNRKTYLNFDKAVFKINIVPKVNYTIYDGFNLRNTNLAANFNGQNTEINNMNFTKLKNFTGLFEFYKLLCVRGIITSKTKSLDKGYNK", "assay": "biochemical", "conditions": "read-out: % Inhibition Against rALC"}, "[2]": {"target": "recombinant full-length BoNT/B light chain (rBLC) (Clostridium botulinum, UniProt P10844)", "sequence (P10844 2-441 limits assumed)": "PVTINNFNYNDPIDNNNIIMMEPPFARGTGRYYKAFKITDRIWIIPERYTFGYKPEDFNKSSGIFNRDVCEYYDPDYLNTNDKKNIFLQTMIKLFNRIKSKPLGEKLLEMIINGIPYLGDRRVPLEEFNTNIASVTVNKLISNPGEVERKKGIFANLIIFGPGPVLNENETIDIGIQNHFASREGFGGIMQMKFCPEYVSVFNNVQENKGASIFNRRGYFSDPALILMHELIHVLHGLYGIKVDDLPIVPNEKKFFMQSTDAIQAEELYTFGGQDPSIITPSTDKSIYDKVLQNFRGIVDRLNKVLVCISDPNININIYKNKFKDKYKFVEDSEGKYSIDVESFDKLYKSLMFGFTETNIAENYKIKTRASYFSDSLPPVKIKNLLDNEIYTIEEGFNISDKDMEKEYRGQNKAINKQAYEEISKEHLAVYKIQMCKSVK", "assay": "biochemical", "conditions": "for inhibition at 20 µM: read-out: % Inhibition Against rBLC"}, "[3]": {"system": "BoNT/A-mediated cleavage of intracellular SNAP-25 in N2a cells", "format": "cell-based, murine", "conditions": "10 μM"}, "[4]": {"system": "BoNT/A-induced neuromuscular block in mouse phrenic nerve hemidiaphragm"}, "[5]": {"system": "neuroblastoma N2a cells", "conditions": "for concentration well-tolerated by the cells / concentration toxic to N2a cells: mouse"}, "[6]": {"target": "BoNT/A (Clostridium botulinum, UniProt P0DPI0)", "sequence (P0DPI0 1-448 limits assumed)": "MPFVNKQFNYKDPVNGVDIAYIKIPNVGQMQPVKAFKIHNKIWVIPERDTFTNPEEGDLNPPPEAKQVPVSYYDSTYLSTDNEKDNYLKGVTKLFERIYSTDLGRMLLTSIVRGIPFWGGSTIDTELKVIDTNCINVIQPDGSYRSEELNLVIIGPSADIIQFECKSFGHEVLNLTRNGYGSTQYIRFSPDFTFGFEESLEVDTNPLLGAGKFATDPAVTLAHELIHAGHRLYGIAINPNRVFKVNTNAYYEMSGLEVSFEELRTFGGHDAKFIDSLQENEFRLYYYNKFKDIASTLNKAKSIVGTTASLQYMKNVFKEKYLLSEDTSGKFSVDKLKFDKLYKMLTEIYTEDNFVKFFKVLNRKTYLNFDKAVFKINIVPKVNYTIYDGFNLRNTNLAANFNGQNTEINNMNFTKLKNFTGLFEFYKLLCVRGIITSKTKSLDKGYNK", "assay": "biochemical", "conditions": "for inhibition at 5 µM: read-out: % Inhibition against BoNT/A (5 μM)"}}, "note": "Values joined by “and” are separate entries in the source; they are usually repeats but may differ in a detail not shown here. Equal entries are not always repeated. Where two headings read alike, the source gives them in different places. Marks after values point to notes of the source that are not given here.", "data": [{"compound": "Oc1c(C(Nc2cccnc2)c2ccc(C(F)(F)F)cc2)ccc2cccnc12", "note": "(racemic) [CB 7967495]", "values": [{"measurement": "inhibition at 20 µM", "setting": "[1]", "result": "92.7 ± 1.5", "unit": "%"}, {"measurement": "inhibition at 20 µM", "setting": "[2]", "result": "30.2 ± 2.4", "unit": "%"}, {"measurement": "inhibition of SNAP-25 cleavage", "setting": "[3]", "result": "near-to-complete inhibition"}, {"measurement": "effective concentration of inhibitor required for maximum protection", "setting": "[4]", "result": 5, "unit": "µM"}, {"measurement": "cell toxicity", "setting": "[5]", "result": "non-toxic to cells"}, {"measurement": "concentration well-tolerated by the cells", "setting": "[5]", "result": "up to 50 μM"}]}, {"compound": "Oc1c(C(Nc2cccnc2)c2ccccc2F)ccc2cccnc12", "note": "(racemic) [CB 7968218]", "values": [{"measurement": "inhibition at 20 µM", "setting": "[1]", "result": "92.8 ± 0.8", "unit": "%"}, {"measurement": "inhibition at 20 µM", "setting": "[2]", "result": "16.8 ± 2.2", "unit": "%"}, {"measurement": "protection from SNAP-25 cleavage", "setting": "[3]", "result": 68, "unit": "%"}, {"measurement": "effective concentration of inhibitor required for maximum protection", "setting": "[4]", "result": 10, "unit": "µM"}, {"measurement": "cell toxicity", "setting": "[5]", "result": "non-toxic to cells"}, {"measurement": "concentration toxic to N2a cells", "setting": "[5]", "result": "above 45 μM"}]}, {"compound": "CCOc1ccc(C(Nc2cccnc2)c2cc(Cl)c3cccnc3c2O)cc1", "note": "(racemic) [CB 7969312]", "values": [{"measurement": "inhibition at 20 µM", "setting": "[1]", "result": "96.2 ± 1.2", "unit": "%"}, {"measurement": "inhibition at 20 µM", "setting": "[2]", "result": "31.2 ± 3", "unit": "%"}, {"measurement": "inhibition of SNAP-25 cleavage", "setting": "[3]", "result": "near-to-complete inhibition"}, {"measurement": "cell toxicity", "setting": "[5]", "result": "non-toxic to cells"}, {"measurement": "concentration well-tolerated by the cells", "setting": "[5]", "result": "up to 50 μM"}]}, {"compound": "Oc1c(C(Nc2cccc3cccnc23)c2ccccc2)ccc2cccnc12", "note": "(racemic) [NSC 84096]", "values": [{"measurement": "inhibition at 20 µM", "setting": "[1]", "result": "91.9 ± 1.7", "unit": "%"}, {"measurement": "inhibition at 20 µM", "setting": "[2]", "result": 6.9, "unit": "%"}, {"measurement": "protection from SNAP-25 cleavage", "setting": "[3]", "result": 66, "unit": "%"}, {"measurement": "Average Time to 50% Loss of Twitch Tension", "setting": "[4]", "result": "59.7 ± 4.9^d min"}, {"measurement": "effective concentration of inhibitor required for maximum protection", "setting": "[4]", "result": 20, "unit": "µM"}, {"measurement": "cell toxicity", "setting": "[5]", "result": "non-toxic to cells"}, {"measurement": "concentration well-tolerated by the cells", "setting": "[5]", "result": "up to 50 μM"}]}, {"compound": "Nc1cc(C(Nc2ccccn2)c2ccccc2)c(O)c2ncccc12", "note": "(stereo not drawn) [Compound 4874-051A]", "values": [{"measurement": "IC50", "setting": "[6]", "result": 2200, "unit": "nM"}, {"measurement": "inhibition at 5 µM", "setting": "[6]", "result": 94, "unit": "%"}]}, {"compound": "Cc1ccc2ccc(C(Nc3cccnc3)c3ccccc3)c(O)c2n1", "note": "(stereo not drawn) [Compound 5116-047A]", "values": [{"measurement": "inhibition at 5 µM", "setting": "[6]", "result": 83, "unit": "%"}, {"measurement": "IC50", "setting": "[6]; read-out: IC50", "result": 1400, "unit": "nM"}]}, {"compound": "Cc1ccc2ccc(C(Nc3cccnc3)c3ccc(F)cc3)c(O)c2n1", "note": "(stereo not drawn) [Compound 5116-048A]", "values": [{"measurement": "inhibition at 5 µM", "setting": "[6]", "result": 87, "unit": "%"}, {"measurement": "IC50", "setting": "[6]; read-out: IC50", "result": 800, "unit": "nM"}]}, {"compound": "Oc1c(C(Nc2cccnc2)c2ccc(F)cc2)ccc2cccnc12", "note": "(stereo not drawn) [Compound 5116-050A]", "values": [{"measurement": "IC50", "setting": "[6]", "result": 1200, "unit": "nM"}, {"measurement": "inhibition at 5 µM", "setting": "[6]", "result": 86.7, "unit": "%"}]}, {"compound": "Oc1c(C(Nc2cccnc2)c2ccc(F)cc2)cc(Cl)c2cccnc12", "note": "(stereo not drawn) [Compound 5116-051A]", "values": [{"measurement": "IC50", "setting": "[6]", "result": "< 1000", "unit": "nM"}, {"measurement": "inhibition at 5 µM", "setting": "[6]", "result": 91, "unit": "%"}]}, {"compound": "Oc1c(C(Nc2cccnc2)c2ccccc2F)cc(Cl)c2cccnc12", "note": "(stereo not drawn) [Compound 5116-052A]", "values": [{"measurement": "IC50", "setting": "[6]", "result": "< 1000", "unit": "nM"}, {"measurement": "inhibition at 5 µM", "setting": "[6]", "result": 97.5, "unit": "%"}]}, {"compound": "O=[N+]([O-])c1ccc(NC(c2ccccc2)c2ccc3cccnc3c2O)cc1", "note": "(stereo not drawn) [NSC 1010]", "values": [{"measurement": "inhibition of BoNT serotype B light chain", "setting": "[2]", "result": "failed to inhibit"}, {"measurement": "concentration toxic to N2a cells", "setting": "[5]", "result": "≥ 10", "unit": "µM"}]}, {"compound": "CRATKML [Ac-CRATKML-NH2, reference compound]", "values": [{"measurement": "Average Time to 50% Loss of Twitch Tension", "setting": "[4]", "result": "52.70 ± 9.30^c min and 65.0 ± 11.5^c min"}]}]}
